# Experimental data published in patent US12503432B2, “Ionizable lipids for nucleic acid delivery” (Global Life Sciences Solutions Canada ULC, priority 2019, dated 2025).
# Experiments:
# [1] = system: primary human T cells; experiment: EPO mRNA LNP delivery to primary human T cells, Quantikine IVD Human Epo ELISA; assay type: cell-based
# Method: Reagents were acquired from Quantikine, Minneapolis, MN. The assay was performed as directed on the Quantikine® IVD® ELISA Human Erythropoietin Immunoassay protocol in the package insert. Briefly; primary human T cells were isolated from fresh whole blood using a negative selection protocol and activated using a triple activator. Seven days post-activation, T cells were dosed with mRNA LNPs encoding EPO at […] mRNA per 500,000 cells and N/P 10. After 48 h of exposure, the T cells were harvested and lysed for cytosolic EPO and media supernatant was sampled for secreted EPO. Quantikine® Human Serum Controls were used.
# [2] = system: C57BL/6 mice; experiment: In vivo delivery of OVA-encoded mRNA LNP via intramuscular administration, anti-OVA-IgG ELISA of serum; details: 5 μg OVA mRNA i.m. on Day 1 and 10, serum 2 weeks post second immunization, versus 50 ug OVA protein, FIG. 10
# Method: A lipid mixture of LM02b composition in ethanol was mixed with a low pH buffered solution of Ova mRNA at an N/P ratio of 8 using a NanoAssemblr® Ignite™ microfluidic mixer. The LNP were downstream processed using the Amicon™ ultra filtration technique and characterized for size, PDI and encapsulation efficiency. Size and PDI were measured using dynamic light scattering techniques, and nucleic acid encapsulation efficiency was calculated from a modified Quant-iT RiboGreen™ RNA assay. The hydrodynamic diameter of these mRNA-LNPs was ˜76 nm with a polydispersity index of 0.01 to 0.12 and an encapsulation efficiency of ˜95%
# All animals were handled according to the Institutional Animal Care and Use Committee ethics protocols. For experiments, 6-8 week old C57BL/6 mice (n=4) were purchased from Envigo. […] Aliquots of serum samples were thawed and analyzed at appropriate dilutions for Ova expression and for IgG measurements using standard ELISA techniques.
# Anti-OVA-IgG ELISA of serum samples: Sera from the immunized mice were collected at 2 weeks post second immunization. OVA—specific production of IgG in response to OVA-encoded mRNA in various LNPs were measured by ELISA as described supra. […] After 30 minutes of incubation, a stop solution of 2 N sulphuric acid was added and a plate reader was used to determine absorbance at 450 nm. […]
# [3] = system: primary human T cells; experiment: CD19 CAR mRNA LNP expression in isolated primary human T cells; assay type: cell-based; details: CT10, N/P 8, transfected T cells in vitro, FIG. 9
# Method: FIG. 9 are two illustrations of CD19 CAR expression levels in isolated primary human T cells mediated by mRNA CT10 N/P 8 LNPs containing PNI 545, PNI 516, PNI132, PNI 542, PNI 565 incorporating CD19 CAR (chimeric antigen receptor) mRNA. Geometric mean fluorescence intensity of anti-CD19-PE fluorophore (top bar graph) and CD19 CAR positive T cell population (bottom histogram) were measured by flow cytometry 24 hours following LNP addition with 500 ng of encapsulated mRNA per 125,000 T cells 3 days after triple activation;
# CD19 CAR expression in isolated primary human T cells mediated by mRNA-LNPs containing IL with CT10 composition at N/P 8 was assayed after in vitro exposure. The CAR vector pcDNA3.1 anti-CD19-h(BB Lambda)-EGFP-2nd-CAR (T7 Mut) 7661 bp was purchased from Creative BioLabs, NY, USA.
# T cells were isolated from whole blood using a negative isolation procedure and T cell activation, and expansion was carried out by triple activation in ImmunoCult™ Human T Cell Expansion Media as described supra.
# [4] = primary human T cells, 48 hours
compound,measurement,setting,value
CC/C=C\CC1C(CC(=O)OCC(COCCCCCCCC/C=C\C/C=C\CCCCC)OCCCCCCCC/C=C\C/C=C\CCCCC)CCC1OC(=O)CCCN(C)C (centres unmarked) [PNI 101],cytosolic EPO,"[1]; T cell lysate, 48 h exposure, N/P 10, FIG. 5",no cytosolic EPO
same,secreted EPO,"[1]; media supernatant, 48 h exposure, N/P 10, FIG. 5",about 1016 mlU/mL
same,EPO expression mediated by LNPs versus MC3,[1]; [4],higher than those containing MC3
same,Fold increase in EPO concentration relative to MC3,[1]; [4],1.87
same,"EPO concentration (mIU/mL), 48 hours","[1]; primary human T cells, 48 hours, EPO mRNA LNP, N/P 10",1016.0 mIU/mL
CC/C=C\CC1C(CC(=O)OCC(COCCCCCCCC/C=C\C/C=C\CCCCC)OCCCCCCCC/C=C\C/C=C\CCCCC)CCC1OC(=O)C1(C)CCN(C)CC1 (centres unmarked) [PNI 123],OVA-specific IgG response,[2],the same or higher IgG response as that of a 10 fold higher dose of OVA protein
CC/C=C\CC1C(CC(=O)OCC(COCCCCCCCC/C=C\C/C=C\CCCCC)OCCCCCCCC/C=C\C/C=C\CCCCC)CCC1OC(=O)C1CCN(C)CC1 (centres unmarked) [PNI 132],OVA-specific IgG response,[2],the same or higher IgG response as that of a 10 fold higher dose of OVA protein
CC/C=C\CC1C(CC(=O)OCCC(CCCCCCCC)OC(=O)C(CCCCCC)CCCCCCCC)CCC1OC(=O)C1(C)CCN(C)CC1 (centres unmarked) [PNI 565],CD19 CAR expression,[3],greater than MC3 LNP
